Where two headings read alike, the source gives them in different places. *1 amine or outer side, *2 acyl side, *3 side chain or, on linkers, in order; H or OH if unused. Where a SMILES comes first, the peptide text is derived from it. Side-chain parts run from the residue outwards. [ ]: non-standard residue; d: D form. The star is where a group is joined. Isobutyryl(2-(3-CN-5-F-Ph)) = CC(C)(C(=O)*)c1cc(F)cc(C#N)c1; C20 diacid = O=C(O)CCCCCCCCCCCCCCCCCCC(=O)*; γGlu = O=C(O)[C@H](CCC(=O)[*:2])N[*:1]; X27 = O=C1CC(C(=O)*)(c2ccccc2)CN1; X40 = CC(C)(C(=O)*)n1cc(Cl)cn1; X83 = Cc1ccn(C(C)(C)C(=O)*)n1; NH(2-ClPh) = Clc1ccccc1N*; X10 = Clc1cccc(N*)c1Cl; AEEA = NCCOCCOCC(=O)O; Aib = CC(C)(N)C(=O)O; CO = O=C([*:1])[*:2]; GABA = NCCCC(=O)O; βAla = NCCC(=O)O
Tests used:
[1] = target: T1, GIP receptor (Homo sapiens, UniProt P48546); assay: HitHunter cAMP assay, GIP receptor; format: cell-based; details: read-out: Emax GIP-1R
T1 sequence (P48546 22-466): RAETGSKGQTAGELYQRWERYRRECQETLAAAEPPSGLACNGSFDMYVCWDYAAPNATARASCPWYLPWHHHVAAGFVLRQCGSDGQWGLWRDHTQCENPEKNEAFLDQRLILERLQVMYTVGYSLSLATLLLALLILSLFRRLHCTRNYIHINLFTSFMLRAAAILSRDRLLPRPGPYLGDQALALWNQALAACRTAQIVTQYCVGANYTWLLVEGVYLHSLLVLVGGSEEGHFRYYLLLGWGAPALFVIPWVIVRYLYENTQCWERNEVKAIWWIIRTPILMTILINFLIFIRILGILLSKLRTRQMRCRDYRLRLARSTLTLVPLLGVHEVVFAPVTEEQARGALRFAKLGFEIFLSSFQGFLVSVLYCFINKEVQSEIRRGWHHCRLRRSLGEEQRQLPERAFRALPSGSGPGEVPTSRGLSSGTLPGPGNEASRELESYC

[2] = target: GLP-1 receptor (Homo sapiens, UniProt P43220); assay: HitHunter cAMP assay, GLP-1 receptor; format: cell-based; details: read-out: Emax GLP-1R
Chain of GLP-1 receptor (P43220 24-463): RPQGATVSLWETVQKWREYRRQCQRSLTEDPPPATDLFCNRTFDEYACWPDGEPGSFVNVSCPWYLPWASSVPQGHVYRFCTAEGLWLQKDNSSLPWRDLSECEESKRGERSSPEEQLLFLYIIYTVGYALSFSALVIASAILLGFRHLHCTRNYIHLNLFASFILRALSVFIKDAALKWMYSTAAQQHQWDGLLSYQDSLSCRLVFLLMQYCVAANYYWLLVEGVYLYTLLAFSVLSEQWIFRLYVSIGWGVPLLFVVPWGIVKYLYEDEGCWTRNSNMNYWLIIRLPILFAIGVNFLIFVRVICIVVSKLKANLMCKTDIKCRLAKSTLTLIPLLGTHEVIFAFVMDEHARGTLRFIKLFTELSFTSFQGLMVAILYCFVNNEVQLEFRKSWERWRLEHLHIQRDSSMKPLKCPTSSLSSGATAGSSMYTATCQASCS

[3] = CHO cells, cAMP, normalized to maximum signal from GIP (high) and DMSO (low)
[4] = CHO cells, cAMP, normalized to maximum signal from GLP-1 (high) and DMSO (low)

SMILES | Emax ([1]; CHO) [%] | Emax ([2]; CHO) [%] | Emax [1, 3] [%] | Emax [2, 4] [%]
CC[C@H](C)[C@H](NC(=O)[C@H](CC(C)C)NC(=O)[C@H](Cc1c[nH]c2ccccc12)NC(=O)[C@H](CCC(N)=O)NC(=O)[C@@H](NC(=O)[C@H](Cc1ccccc1)NC(=O)[C@H](C)NC(=O)[C@H](CCCCNC(=O)COCCOCCNC(=O)COCCOCCNC(=O)CC[C@H](NC(=O)CCCCCCCCCCCCCCCCCCC(=O)O)C(=O)O)NC(=O)[C@H](CCC(N)=O)NC(=O)[C@H](C)NC(=O)[C@@H](NC(=O)[C@H](CCCCN)NC(=O)[C@H](CC(=O)O)NC(=O)[C@H](CC(C)C)NC(=O)C(C)(C)NC(=O)[C@@H](NC(=O)[C@H](CO)NC(=O)[C@H](Cc1ccc(O)cc1)NC(=O)[C@H](CC(=O)O)NC(=O)[C@H](CO)NC(=O)[C@@H](NC(=O)[C@H](Cc1ccccc1)NC(=O)[C@@H](NC(=O)CNC(=O)[C@H](CCC(=O)O)NC(=O)CCCNC(=O)CNC(=O)Nc1ccccc1Cl)[C@@H](C)O)[C@@H](C)O)[C@@H](C)CC)[C@@H](C)CC)C(C)C)C(=O)N[C@@H](C)C(=O)NCC(=O)NCC(=O)N1CCC[C@H]1C(=O)N[C@@H](CO)C(=O)N[C@@H](CO)C(=O)NCC(=O)N[C@@H](C)C(=O)N1CCC[C@H]1C(=O)N1CCC[C@H]1C(=O)N1CCC[C@H]1C(=O)N[C@@H](CO)C(N)=O [Compound 259] ({NH(2-ClPh)-CO}-G[GABA]EGTFTSDYSI[Aib]LDKIAQK([AEEA-AEEA-γGlu-C20 diacid])AFVQWLIAGGPSSGAPPPS-NH2; C-terminus assumed) | 103 | 103 | – | –
CC[C@H](C)[C@H](NC(=O)[C@H](CC(C)C)NC(=O)[C@H](Cc1c[nH]c2ccccc12)NC(=O)[C@H](CCC(N)=O)NC(=O)[C@@H](NC(=O)[C@H](Cc1ccccc1)NC(=O)[C@H](C)NC(=O)[C@H](CCCCNC(=O)COCCOCCNC(=O)COCCOCCNC(=O)CC[C@H](NC(=O)CCCCCCCCCCCCCCCCCCC(=O)O)C(=O)O)NC(=O)[C@H](CCC(N)=O)NC(=O)[C@H](C)NC(=O)[C@@H](NC(=O)[C@H](CCCCN)NC(=O)[C@H](CC(=O)O)NC(=O)[C@H](CC(C)C)NC(=O)C(C)(C)NC(=O)[C@@H](NC(=O)[C@H](CO)NC(=O)[C@H](Cc1ccc(O)cc1)NC(=O)[C@H](CC(=O)O)NC(=O)[C@H](CO)NC(=O)[C@@H](NC(=O)[C@H](Cc1ccccc1)NC(=O)[C@@H](NC(=O)CNC(=O)[C@H](CCC(=O)O)NC(=O)CCNC(=O)C(C)(C)n1cc(Cl)cn1)[C@@H](C)O)[C@@H](C)O)[C@@H](C)CC)[C@@H](C)CC)C(C)C)C(=O)N[C@@H](C)C(=O)NCC(=O)NCC(=O)N1CCC[C@H]1C(=O)N[C@@H](CO)C(=O)N[C@@H](CO)C(=O)NCC(=O)N[C@@H](C)C(=O)N1CCC[C@H]1C(=O)N1CCC[C@H]1C(=O)N1CCC[C@H]1C(=O)N[C@@H](CO)C(N)=O [Compound 247] ({X40-βAla}-EGTFTSDYSI[Aib]LDKIAQK([AEEA-AEEA-γGlu-C20 diacid])AFVQWLIAGGPSSGAPPPS-NH2; C-terminus assumed) | – | – | 105 | 101
CC[C@H](C)[C@H](NC(=O)[C@H](CC(C)C)NC(=O)[C@H](Cc1c[nH]c2ccccc12)NC(=O)[C@H](CCC(N)=O)NC(=O)[C@@H](NC(=O)[C@H](Cc1ccccc1)NC(=O)[C@H](C)NC(=O)[C@H](CCCCNC(=O)COCCOCCNC(=O)COCCOCCNC(=O)CC[C@H](NC(=O)CCCCCCCCCCCCCCCCCCC(=O)O)C(=O)O)NC(=O)[C@H](CCC(N)=O)NC(=O)[C@H](C)NC(=O)[C@@H](NC(=O)[C@H](CCCCN)NC(=O)[C@H](CC(=O)O)NC(=O)[C@H](CC(C)C)NC(=O)C(C)(C)NC(=O)[C@@H](NC(=O)[C@H](CO)NC(=O)[C@H](Cc1ccc(O)cc1)NC(=O)[C@H](CC(=O)O)NC(=O)[C@H](CO)NC(=O)[C@@H](NC(=O)[C@H](Cc1ccccc1)NC(=O)[C@@H](NC(=O)CNC(=O)[C@H](CCC(=O)O)NC(=O)CCCNC(=O)CNC(=O)Nc1cccc(Cl)c1Cl)[C@@H](C)O)[C@@H](C)O)[C@@H](C)CC)[C@@H](C)CC)C(C)C)C(=O)N[C@@H](C)C(=O)NCC(=O)NCC(=O)N1CCC[C@H]1C(=O)N[C@@H](CO)C(=O)N[C@@H](CO)C(=O)NCC(=O)N[C@@H](C)C(=O)N1CCC[C@H]1C(=O)N1CCC[C@H]1C(=O)N1CCC[C@H]1C(=O)N[C@@H](CO)C(N)=O [Compound 262] ({X10-CO}-G[GABA]EGTFTSDYSI[Aib]LDKIAQK([AEEA-AEEA-γGlu-C20 diacid])AFVQWLIAGGPSSGAPPPS-NH2; C-terminus assumed) | 106 | 90 | – | –
CC[C@H](C)[C@H](NC(=O)[C@H](CC(C)C)NC(=O)[C@H](Cc1c[nH]c2ccccc12)NC(=O)[C@H](CCC(N)=O)NC(=O)[C@@H](NC(=O)[C@H](Cc1ccccc1)NC(=O)[C@H](C)NC(=O)[C@H](CCCCNC(=O)COCCOCCNC(=O)COCCOCCNC(=O)CC[C@H](NC(=O)CCCCCCCCCCCCCCCCCCC(=O)O)C(=O)O)NC(=O)[C@H](CCC(N)=O)NC(=O)[C@H](C)NC(=O)[C@@H](NC(=O)[C@H](CCCCN)NC(=O)[C@H](CC(=O)O)NC(=O)[C@H](CC(C)C)NC(=O)C(C)(C)NC(=O)[C@@H](NC(=O)[C@H](CO)NC(=O)[C@H](Cc1ccc(O)cc1)NC(=O)[C@H](CC(=O)O)NC(=O)[C@H](CO)NC(=O)[C@@H](NC(=O)[C@H](Cc1ccccc1)NC(=O)[C@@H](NC(=O)CNC(=O)[C@H](CCC(=O)O)NC(=O)CCNC(=O)C(C)(C)n1ccc(C)n1)[C@@H](C)O)[C@@H](C)O)[C@@H](C)CC)[C@@H](C)CC)C(C)C)C(=O)N[C@@H](C)C(=O)NCC(=O)NCC(=O)N1CCC[C@H]1C(=O)N[C@@H](CO)C(=O)N[C@@H](CO)C(=O)NCC(=O)N[C@@H](C)C(=O)N1CCC[C@H]1C(=O)N1CCC[C@H]1C(=O)N1CCC[C@H]1C(=O)N[C@@H](CO)C(N)=O [Compound 253] ({X83-βAla}-EGTFTSDYSI[Aib]LDKIAQK([AEEA-AEEA-γGlu-C20 diacid])AFVQWLIAGGPSSGAPPPS-NH2; C-terminus assumed) | – | – | 105 | 94
CC[C@H](C)[C@H](NC(=O)[C@H](CC(C)C)NC(=O)[C@H](Cc1c[nH]c2ccccc12)NC(=O)[C@H](CCC(N)=O)NC(=O)[C@@H](NC(=O)[C@H](Cc1ccccc1)NC(=O)[C@H](C)NC(=O)[C@H](CCCCNC(=O)COCCOCCNC(=O)COCCOCCNC(=O)CC[C@H](NC(=O)CCCCCCCCCCCCCCCCCCC(=O)O)C(=O)O)NC(=O)[C@H](CCC(N)=O)NC(=O)[C@H](C)NC(=O)[C@@H](NC(=O)[C@H](CCCCN)NC(=O)[C@H](CC(=O)O)NC(=O)[C@H](CC(C)C)NC(=O)C(C)(C)NC(=O)[C@@H](NC(=O)[C@H](CO)NC(=O)[C@H](Cc1ccc(O)cc1)NC(=O)[C@H](CC(=O)O)NC(=O)[C@H](CO)NC(=O)[C@@H](NC(=O)[C@H](Cc1ccccc1)NC(=O)[C@@H](NC(=O)CNC(=O)[C@H](CCC(=O)O)NC(=O)CCNC(=O)C(C)(C)c1cc(F)cc(C#N)c1)[C@@H](C)O)[C@@H](C)O)[C@@H](C)CC)[C@@H](C)CC)C(C)C)C(=O)N[C@@H](C)C(=O)NCC(=O)NCC(=O)N1CCC[C@H]1C(=O)N[C@@H](CO)C(=O)N[C@@H](CO)C(=O)NCC(=O)N[C@@H](C)C(=O)N1CCC[C@H]1C(=O)N1CCC[C@H]1C(=O)N1CCC[C@H]1C(=O)N[C@@H](CO)C(N)=O [Compound 254] ({Isobutyryl(2-(3-CN-5-F-Ph))-βAla}-EGTFTSDYSI[Aib]LDKIAQK([AEEA-AEEA-γGlu-C20 diacid])AFVQWLIAGGPSSGAPPPS-NH2; C-terminus assumed) | – | – | 102 | 93
CC[C@H](C)[C@H](NC(=O)[C@H](CC(C)C)NC(=O)[C@H](Cc1c[nH]c2ccccc12)NC(=O)[C@H](CCC(N)=O)NC(=O)[C@@H](NC(=O)[C@H](Cc1ccccc1)NC(=O)[C@H](C)NC(=O)[C@H](CCCCNC(=O)COCCOCCNC(=O)COCCOCCNC(=O)CC[C@H](NC(=O)CCCCCCCCCCCCCCCCCCC(=O)O)C(=O)O)NC(=O)[C@H](CCC(N)=O)NC(=O)[C@H](C)NC(=O)[C@@H](NC(=O)[C@H](CCCCN)NC(=O)[C@H](CC(=O)O)NC(=O)[C@H](CC(C)C)NC(=O)C(C)(C)NC(=O)[C@@H](NC(=O)[C@H](CO)NC(=O)[C@H](Cc1ccc(O)cc1)NC(=O)[C@H](CC(=O)O)NC(=O)[C@H](CO)NC(=O)[C@@H](NC(=O)[C@H](Cc1ccccc1)NC(=O)[C@@H](NC(=O)CNC(=O)[C@H](CCC(=O)O)NC(=O)CCNC(=O)C1(c2ccccc2)CNC(=O)C1)[C@@H](C)O)[C@@H](C)O)[C@@H](C)CC)[C@@H](C)CC)C(C)C)C(=O)N[C@@H](C)C(=O)NCC(=O)NCC(=O)N1CCC[C@H]1C(=O)N[C@@H](CO)C(=O)N[C@@H](CO)C(=O)NCC(=O)N[C@@H](C)C(=O)N1CCC[C@H]1C(=O)N1CCC[C@H]1C(=O)N1CCC[C@H]1C(=O)N[C@@H](CO)C(N)=O (stereo partly drawn) [Compound 250] ({X27-βAla}-EGTFTSDYSI[Aib]LDKIAQK([AEEA-AEEA-γGlu-C20 diacid])AFVQWLIAGGPSSGAPPPS-NH2; C-terminus assumed) | – | – | 89 | 90

Reference: US12281149B2, “Modulators of G-protein coupled receptors” (priority 2021, dated 2025)
